Test results: PubChem BioAssay AID1963972 (Molecular Pharmacology Branch, DTP, NCI, 2024)

Tested on: 945468-187-T-J2-PDC spheroids viability
Experiment: Anticancer human tumor 945468-187-T-J2-PDC patient-derived rectal carcinoma cell line growth inhibition [PI3K]
Conditions: spheroids with HUVEC and MSC; for IC50: curve of first compound; for viability, T/C: stronger effect = lower value
In short: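 Agents were dosed from a top concentration near clinical Cmax (otherwise 10 microM) in half-log decrements, alone or combined with PI3K inhibitors. The spheroids contain tumor cells plus endothelial (HUVEC) and MSC stroma; viability is measured.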

[1] = second compound 0.0316 µM, first compound 0.000316 µM
[2] = second compound 0.0316 µM, first compound 0.001 µM
[3] = second compound 0.0316 µM, first compound 0.00316 µM
[4] = second compound 0.0316 µM, first compound 0.01 µM
[5] = second compound 0.0316 µM, first compound 0.0316 µM
[6] = second compound 0.0316 µM, first compound 0.1 µM
[7] = second compound 0.1 µM, first compound 0.000316 µM
[8] = second compound 0.1 µM, first compound 0.001 µM
[9] = second compound 0.1 µM, first compound 0.00316 µM
[10] = second compound 0.1 µM, first compound 0.01 µM
[11] = second compound 0.1 µM, first compound 0.0316 µM
[12] = second compound 0.1 µM, first compound 0.1 µM
[13] = second compound 0.316 µM, first compound 0.000316 µM
[14] = second compound 0.316 µM, first compound 0.001 µM
[15] = second compound 0.316 µM, first compound 0.00316 µM
[16] = second compound 0.316 µM, first compound 0.01 µM
[17] = second compound 0.316 µM, first compound 0.0316 µM
[18] = second compound 0.316 µM, first compound 0.1 µM
[19] = second compound 1 µM, first compound 0.000316 µM
[20] = second compound 1 µM, first compound 0.001 µM
[21] = second compound 1 µM, first compound 0.00316 µM
[22] = second compound 1 µM, first compound 0.01 µM
[23] = second compound 1 µM, first compound 0.0316 µM
[24] = second compound 1 µM, first compound 0.1 µM
[25] = second compound 3.16 µM, first compound 0.000316 µM
[26] = second compound 3.16 µM, first compound 0.001 µM
[27] = second compound 3.16 µM, first compound 0.00316 µM
[28] = second compound 3.16 µM, first compound 0.01 µM
[29] = second compound 3.16 µM, first compound 0.0316 µM
[30] = second compound 3.16 µM, first compound 0.1 µM
[31] = second compound 10 µM, first compound 0.000316 µM
[32] = second compound 10 µM, first compound 0.001 µM
[33] = second compound 10 µM, first compound 0.00316 µM
[34] = second compound 10 µM, first compound 0.01 µM
[35] = second compound 10 µM, first compound 0.0316 µM
[36] = second compound 10 µM, first compound 0.1 µM
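Further: spheroids exposed to compounds for seven days before reading.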

For `Cn1ncnc1[C@H]1c2n[nH]c(=O)c3cc(F)cc(c23)N[C@@H]1c1ccc(F)cc1` + CC(Nc1ncnc2nc[nH]c12)c1cc2cccc(Cl)c2c(=O)n1-c1ccccc1, the IC50 (second compound 0.0316 µM) was greater than 100 nM, the IC50 (second compound 0.1 µM) was greater than 100 nM and the IC50 (second compound 0.316 µM) was greater than 100 nM. The IC50 (second compound 1 µM) was greater than 100 nM, the IC50 (second compound 3.16 µM) was greater than 100 nM and the IC50 (second compound 10 µM) was greater than 100 nM. It also gave a viability, T/C [1] of 100%, a viability, T/C [2] of 106% and a viability, T/C [3] of 85.3%. The viability, T/C [4] was 93.1%, the viability, T/C [5] was 87.3% and the viability, T/C [6] was 89.8%. The viability, T/C [7] was 89%, the viability, T/C [8] was 90.3% and the viability, T/C [9] was 88%. The viability, T/C [10] was 88%, the viability, T/C [11] was 103% and the viability, T/C [12] was 109%. For the same compound, the viability, T/C [13] was 115%, the viability, T/C [14] was 102% and the viability, T/C [15] was 130%. For the same compound, the viability, T/C [16] was 97.5%, the viability, T/C [17] was 121% and the viability, T/C [18] was 96.8%. It also gave a viability, T/C [19] of 88.8%, a viability, T/C [20] of 100% and a viability, T/C [21] of 84.7%. For the same compound, the viability, T/C [22] was 108%, the viability, T/C [23] was 103% and the viability, T/C [24] was 110%. For the same compound, the viability, T/C [25] was 120%, the viability, T/C [26] was 108% and the viability, T/C [27] was 116%. It also gave a viability, T/C [28] of 128%, a viability, T/C [29] of 99.4% and a viability, T/C [30] of 111%. It also gave a viability, T/C [31] of 117%, a viability, T/C [32] of 103% and a viability, T/C [33] of 112%. The viability, T/C [34] was 105%, the viability, T/C [35] was 102% and the viability, T/C [36] was 109%.
With `Cn1ncnc1[C@H]1c2n[nH]c(=O)c3cc(F)cc(c23)N[C@@H]1c1ccc(F)cc1` + Cc1nc(NC(=O)N2CCCC2C(N)=O)sc1-c1ccnc(C(C)(C)C(F)(F)F)c1 the IC50 (second compound 0.0316 µM) was greater than 100 nM, the IC50 (second compound 0.1 µM) was greater than 100 nM and the IC50 (second compound 0.316 µM) was greater than 100 nM. The IC50 (second compound 1 µM) was greater than 100 nM, the IC50 (second compound 3.16 µM) was greater than 100 nM and the IC50 (second compound 10 µM) was greater than 100 nM. It also gave a viability, T/C [1] of 103%, a viability, T/C [2] of 83.4% and a viability, T/C [3] of 130%. It also gave a viability, T/C [4] of 100%, a viability, T/C [5] of 91.6% and a viability, T/C [6] of 130%. The viability, T/C [7] was 106%, the viability, T/C [8] was 109% and the viability, T/C [9] was 129%. For the same compound, the viability, T/C [10] was 91.2%, the viability, T/C [11] was 117% and the viability, T/C [12] was 131%. It also gave a viability, T/C [13] of 110%, a viability, T/C [14] of 119% and a viability, T/C [15] of 89.4%. It also gave a viability, T/C [16] of 82.2%, a viability, T/C [17] of 117% and a viability, T/C [18] of 117%. For the same compound, the viability, T/C [19] was 108%, the viability, T/C [20] was 104% and the viability, T/C [21] was 103%. For the same compound, the viability, T/C [22] was 119%, the viability, T/C [23] was 134% and the viability, T/C [24] was 89.3%. For the same compound, the viability, T/C [25] was 94%, the viability, T/C [26] was 97.1% and the viability, T/C [27] was 86.5%. The viability, T/C [28] was 90.2%, the viability, T/C [29] was 90.4% and the viability, T/C [30] was 92%. The viability, T/C [31] was 99.3%, the viability, T/C [32] was 85.5% and the viability, T/C [33] was 88.6%. It also gave a viability, T/C [34] of 77.8%, a viability, T/C [35] of 91.5% and a viability, T/C [36] of 89.8%.
Compound `CC(=O)c1c(C)c2cnc(Nc3ccc(N4CCNCC4)cn3)nc2n(C2CCCC2)c1=O` + Cc1nc(NC(=O)N2CCCC2C(N)=O)sc1-c1ccnc(C(C)(C)C(F)(F)F)c1 has an IC50 (second compound 0.0316 µM) greater than 100 nM, an IC50 (second compound 0.1 µM) greater than 100 nM and an IC50 (second compound 0.316 µM) greater than 100 nM. It also gave an IC50 (second compound 1 µM) greater than 100 nM, an IC50 (second compound 3.16 µM) greater than 100 nM and an IC50 (second compound 10 µM) greater than 100 nM. It also gave a viability, T/C [1] of 79.2%, a viability, T/C [2] of 88.4% and a viability, T/C [3] of 89.4%. The viability, T/C [4] was 121%, the viability, T/C [5] was 79.5% and the viability, T/C [6] was 98.2%. It also gave a viability, T/C [7] of 86.1%, a viability, T/C [8] of 84.2% and a viability, T/C [9] of 89.6%. It also gave a viability, T/C [10] of 84.1%, a viability, T/C [11] of 110% and a viability, T/C [12] of 103%. It also gave a viability, T/C [13] of 93.7%, a viability, T/C [14] of 107% and a viability, T/C [15] of 95.5%. For the same compound, the viability, T/C [16] was 88.6%, the viability, T/C [17] was 118% and the viability, T/C [18] was 136%. It also gave a viability, T/C [19] of 118%, a viability, T/C [20] of 110% and a viability, T/C [21] of 75.7%. It also gave a viability, T/C [22] of 78%, a viability, T/C [23] of 94.9% and a viability, T/C [24] of 90.3%. It also gave a viability, T/C [25] of 79.2%, a viability, T/C [26] of 71.7% and a viability, T/C [27] of 82.8%. For the same compound, the viability, T/C [28] was 75.3%, the viability, T/C [29] was 83% and the viability, T/C [30] was 78.2%. The viability, T/C [31] was 83%, the viability, T/C [32] was 66.7% and the viability, T/C [33] was 78%. It also gave a viability, T/C [34] of 64.5%, a viability, T/C [35] of 92.7% and a viability, T/C [36] of 76.3%.
